# Source: patent US20250049953A1, “TREATMENT AND METHOD FOR INHIBITING LATE NA CURRENT” (THE TRUSTEES OF COLUMBIA UNIVERSITY IN THE CITY OF NEW YORK, priority 2022, published 2025)
# No end group written: not given here.
# B1: FHF1A amino terminus: entire FHF1A amino terminus expressed as a peptide (peptide)
# peptide: MAAAIASSLIRQKRQARESNSDRVSASKRRSSPSKDGRSLCERHVLGVFSKVRFCSGRKRPVRRRP
# modifications: left off: large carriers
# notes: entire FHF1A amino terminus expressed as a peptide
# Columns and labels:
# NaV1.5 IQ/AA mutant = molecular target: T1, NaV1.5 IQ/AA mutant (Homo sapiens, UniProt Q14524, I1908A/Q1909A); assay: Multichannel recordings of late Na current, NaV1.5 IQ/AA mutant in HEK293 cells; type: cell-based; settings: for change in INa,L: co-expression with NaV1.5 IQ/AA in HEK293 cells
# T1 construct: expressed in transfected cells; host or cells: HEK293 (ATCC CRL1573)
# Excerpt: The human NaV1.5 channel corresponds to clone M77235.1 (GenBank) and is subcloned into pGW 1 vector with HindIII and SaII. To facilitate construction of channelopathic mutations in the channel carboxy-terminus, we introduced silent mutations into NaV1.5 to introduce an NruI cutting site near the channel carboxy-terminus (5329-gtggccacg-5337 into 5329-gtCgcGacg-5337). Subsequently, we used overlap-extension PCR and ligated the PCR product into NaV1.5/pGW1 using NruI and XbaI restriction sites (mutations: E1784K, S1904L, IQ/AA, and Q1909R). For generating the ΔKPQ and IFM/IQM mutations, we used overlap-extension PCR and ligated in NaV1.5/pGW1 following restriction digest using KpnI and XbaI site. For generation of NaV1.5 truncations, we PCR amplified relevant segments using a forward primer upstream of the KpnI site and a reverse primer that truncated at the appropriate location (Δ1810 and Δ1885) and included an XbaI site and ligated into NaV1.5/pW1 vector. For LILA/WICW mutations, we used overlap extension and used restriction site AgeI and NheI for subsequent ligation. All segments subjected to PCR amplification were verified by sequencing. For generating human FHF2 splice-variants, we synthesized gene fragments and ligated into pcDNA3 using BamHI/EcoRI restriction sites. Human FHF1A and FHF1B were subcloned into ECFP-N3 vector, FHF2 splice variants and FHF3 were subcloned into pcDNA3. Truncations of the FHF1A amino-terminus (NT) were generated as fusion proteins with Venus fluorescent protein in the carboxy-terminus by encoding the relevant segments as noted in FIG. 12A in the forward PCR primer and the fluorophore as the template. Following PCR amplification, each fragment was ligated into pcDNA3 following restriction digest using NheI and XhoI enzymes. Plasmid encoding PKA catalytic subunit was constructed from pDONR222-PRKACA as described previously.
# HEK293 cells (ATCC CRL1573) were cultured on glass coverslips in 60-mm dishes and transfected using the Ca^2+-phosphate method as previously described. For electrophysiology experiments, we co-transfected 4-8 μg of cDNA encoding the desired channel variant with 4 μg of YFP, and 1 μg of simian virus 40 T-antigen. For experiments evaluating effect of FHF, we transfected the relevant FHF variant at 1:1 ratio as the α-subunit. For experiments considering competition between FHF1/2 isoforms, we co-transfected FHF1B and FHF2S variants at specified ratios (ranging from 1:1 to 1:10). The culture media was replaced following 4 h of transfection. Electrophysiology recordings were then performed at room temperature 1-2 days following transfection.
# Multichannel records were obtained in the on-cell configuration with either HEK293 cells or in aMVM as in our previous study. The pipette contained (in mM): 140 NaCl; 10 HEPES; 0.5 CaCl2; at 300 mOsm, adjusted with tetraethylammonium methanesulfonate; and pH 7.4 adjusted with tetraethylammonium hydroxide. To zero membrane potential, the bath contained (in mM): 132 K^+-glutamate; 5 KCl; 5 NaCl; 3 MgCl; 2 EGTA; 10 glucose; 20HEPES; at 300 mOsm adjusted with glucose; and pH 7.4 adjusted with NaOH. Data were acquired at room temperature using the integrating mode of an Axopatch 200A amplifier (Axon Instruments, Molecular Devices). Patch pipettes (3-10 MΩ) were pulled from ultra-thick-walled borosilicate glass (BF200-116-10; Sutter Instruments) using horizontal puller (P-97, Sutter Instruments), fire polished with a microforge (Narishige), and coated with Sylgard™ brand silicone elastomer (Dow Corning). Elementary currents were low-pass filtered at 2 kHz with a four-pole Bessel filter and digitized at 200 kHz with an ITC-18 unit (Instrutech), controlled by custom MATLAB software (Mathworks). For each pulse, we obtained P/8 leak pulses. Leak subtraction was performed using an automated algorithm which fit the kinetics of the leak current or the capacitive transient with convex optimization with L1 regularization. […]
# [1] = system: ischemia induced arrhythmias; settings: rats; cited from earlier work
# late Na current = settings: cited from earlier work
# [2] = system: aMVM from non-transgenic mice; assay: Multichannel recordings of INa,L in cultured aMVM from non-transgenic mice; type: cell-based, mouse; settings: 5 μM Forskolin following shRNA-mediated silencing of FHF2
# Excerpt: As such, we sought to determine whether “protective” FHF variants may inhibit phosphorylation-dependent INa,L. To maximally upregulate INa,L, we co-expressed wild-type NaV1.5 with either (1) the catalytic Cα subunit of protein kinase A (PKA) or (2) a constitutively-active Ca^2+/CaM dependent kinase II (CaMKIIT286D) mutant in HEK293 cells. This maneuver likely triggers runaway phosphorylation of NaV1.5 and thereby furnishes a baseline to discern any potential FHF-dependent change. As expected, we observed an ˜5 fold increase in INa,L in the presence of the PKA Cα subunit (FIGS. 3D and 3E), and a 3-fold increase with CaMKIIT286D (FIGS. 3E and 11B). […] Encouraged by these findings, we dissected the functional role of this modulation in native cardiomyocytes (FIGS. 3F and 3G).
# Multichannel records were obtained in the on-cell configuration with either HEK293 cells or in aMVM as in our previous study. The pipette contained (in mM): 140 NaCl; 10 HEPES; 0.5 CaCl2; at 300 mOsm, adjusted with tetraethylammonium methanesulfonate; and pH 7.4 adjusted with tetraethylammonium hydroxide. […]
# Mice ventricular myocytes were isolated by enzymatic digestion using a Langendorff perfusion apparatus as previously described. […] The efficacy of viral transduction was assessed 24-48 hours post infection.
# neuronal Na channels = settings: cited from earlier work
# [3] = in vivo; cited from earlier work
# [4] = acute animal toxicity tests; cited from earlier work
# [5] = molecular target: T2, NaV1.5 S1904L mutant channel (Homo sapiens, UniProt Q14524, S1904L); assay: Multichannel recordings of late Na current, NaV1.5 S1904L; type: cell-based
# T2 construct: expressed in transfected cells; host or cells: HEK293 (ATCC CRL1573)
# Protocol: HEK293 cells (ATCC CRL1573) were cultured on glass coverslips in 60-mm dishes and transfected using the Ca^2+-phosphate method as previously described. For electrophysiology experiments, we co-transfected 4-8 μg of cDNA encoding the desired channel variant with 4 μg of YFP, and 1 μg of simian virus 40 T-antigen. […] The culture media was replaced following 4 h of transfection. Electrophysiology recordings were then performed at room temperature 1-2 days following transfection.
# [6] = system: Ca^2+ channels and K^+ channels; settings: cited from earlier work
# [7] = molecular target: NaV1.5 IFM/IQM mutant (human) (UniProt Q14524); assay: cell-based or functional assay
# [8] = molecular target: NaV1.5 LILA/WICW mutant (human) (UniProt Q14524); assay: cell-based or functional assay
# [9] = molecular target: NaV1.5 IQ/AA mutant (human) (UniProt Q14524); assay: cell-based or functional assay
# [10] = incubation with 10 μM ranolazine
molecule,measurement,setting,value
"1-18: FHF1A amino-terminal truncation peptide, residues 1-18, Venus fusion (MAAAIASSLIRQKRQARE; also: Venus fusion, end not given here; UniProt P61328 1-18, looked up, fragment)","change in INa,L",NaV1.5 IQ/AA mutant,increase late channel openings
"9-32: FHF1A amino-terminal truncation peptide, residues 9-32, Venus fusion (LIRQKRQARESNSDRVSASKRRSS; also: Venus fusion, end not given here; UniProt P61328 9-32, looked up, fragment)","change in INa,L",NaV1.5 IQ/AA mutant,increase late channel openings
"12-17: FHF1A amino-terminal truncation peptide, residues 12-17, Venus fusion (QKRQAR; also: Venus fusion, end not given here; UniProt P61328 12-17, looked up, fragment)","change in INa,L",NaV1.5 IQ/AA mutant,increase late channel openings
"18-39: FHF1A amino-terminal truncation peptide, residues 18-39, Venus fusion (ESNSDRVSASKRRSSPSKDGRS; also: Venus fusion, end not given here; UniProt P61328 18-39, looked up, fragment)","change in INa,L",NaV1.5 IQ/AA mutant,increase late channel openings
COc1ccccc1SC[C@@H](C)CN[C@@H]1COc2ccccc2SC1 [F15845],effect on ischemia induced arrhythmias,[1],prevented ischemia induced arrhythmias
same,potency/efficacy for blocking late Na current,late Na current,very high efficacy
C=C[C@@]1(C)CC(=O)[C@]2(O)[C@@]3(C)[C@@H](O)CCC(C)(C)[C@@H]3[C@H](O)[C@H](OC(C)=O)[C@@]2(C)O1 [Forskolin],"increase in INa,L",[2],20 fold
FC(F)(F)Oc1ccc(-c2ccc3nnc(C(F)(F)F)n3c2)cc1 [GS-458967],block of neuronal Na channels,neuronal Na channels,use-dependent block
same,potency/efficacy for blocking late Na current,late Na current,high efficacy
same,brain penetration,[3],high brain penetration
Cc1noc(Cn2nc3ccc(-c4ccc(OC(F)(F)F)cc4)cn3c2=O)n1 [GS-462808],liver findings,[4],caused liver lesions
COc1ccccc1OCC(O)CN1CCN(CC(=O)Nc2c(C)cccc2C)CC1 (stereo not drawn) [ranolazine],"reduction in INa,L",[5]; [10],3 fold
same,"inhibition of INa,L","[5]; ranolazine, FIG. 13I","inhibits INa,L"
same,potency/efficacy for blocking late Na current,late Na current,suboptimal potency
same,"reduction in INa,L",NaV1.5 IQ/AA mutant; [10],3 fold
same,"inhibition of INa,L","NaV1.5 IQ/AA mutant; ranolazine, FIG. 13G",modest inhibition
same,interactions with other ionic currents,[6],non-selectivity interactions with other ionic currents
"FHF1A (human fibroblast growth factor homologous factor 1, splice variant A) (from UniProt P61328 1-243)",time constant of the excess inactivation (single-exponential decay),[7],17.8 ms
same,time constant of the excess inactivation (single-exponential decay),[8],12.3 ms
FHF1B (human) (from UniProt P61328 1-181),"INa,L (Rpersist), multichannel recordings in HEK293 cells",[9],4 fold
same,"INa,L, multichannel recordings in HEK293 cells",[9],3 fold
same,"Rpersist against the ratio of FHF1B to FHF2S cDNA (ρ), half-maximal effect (ratio of FHF1B to FHF2S cDNA)",[9],0.4
"FixR (FHF-inhibiting-X-region), FHF1A amino-terminal residues 1-39, expressed as a Venus fusion (peptide)","fold reduction in INa,L (FIG. 5C)",[9],10 to 15 fold
B1,"change in INa,L",NaV1.5 IQ/AA mutant,strongly inhibited
